Values after ≈ are worked out from the molar mass of the structure shown. Like-named read-outs stand apart in the source and are kept apart here.
Key:
[1] = Solubility determining in water by HPLC (saturated solutions, external standard method); type: physicochemical; settings: for solubility: thermodynamic from solid
Text: 1. Solubility Determining:
1) Instruments and reagents: Thermo Fisher UltiMate 3000 high performance liquid chromatography (Thermo, USA); chromatographic column (Phenomenex Gemini C18, 5μ, 250×4.6 mm); electronic balance (METTLER TOLEDO instruments (Shanghai) Co., Ltd.); cannabidiol (commercially available), cannabidiol-3-sulfonic acid (prepared in Embodiment 1) and sodium cannabidiol-3-sulfonate (prepared in Embodiment 3). chromatography acetonitrile (Merck, Germany); water was Milli-Q ultrapure water, the remaining reagents were analytically pure.
Three clean 10 mL penicillin bottles were taken, 6 mL of ultrapure water was added accurately in each of the penicillin bottles, and the weight was weighed accurately. Cannabidiol, cannabidiol-3-sulfonic acid and sodium cannabidiol-3-sulfonate were separately added at room temperature until ultrasonic treatment was performed for 10 min and the samples still could not be completely dissolved, to obtain saturated solutions of three compounds respectively; the solutions stood overnight at room temperature, and supernatants were taken as solutions of samples for test (supernatants of the cannabidiol-3-sulfonic acid and the sodium cannabidiol-3-sulfonate were diluted by appropriate times depending on the detection situation).
An appropriate amount of cannabidiol, cannabidiol-3-sulfonic acid and sodium cannabidiol-3-sulfonate were taken and were prepared into solutions with a concentration of 0.2 mg·mL^−1 as reference substance solutions by using 10% acetonitrile-0.5% acetic acid solution.
The samples were determined by high performance liquid chromatography (Appendix V D of Part II of Chinese Pharmacopoeia).
Chromatographic conditions and system suitability Octadecylsilane bonded silica was used as a filler; 10% acetonitrile—0.5% acetic acid→75% acetonitrile—0.5% acetic acid were used as mobile phases; the wavelength was detected to be 225 nm; and the theoretical plate numbers were not less than 4,000 on a basis of cannabidiol, cannabidiol-3-sulfonic acid and sodium cannabidiol-3-sulfonate.
A measurement method includes: precisely measuring and injecting 20 μL of solution of sample for test into a liquid chromatograph, and recording a chromatogram; and taking a reference substance solution and measuring the reference substance solution according to the same method. The concentrations of the three compounds in the solution of sample for test were calculated by an external standard method according to a peak area.

[2] = high-purity CBD, cited from earlier work
[3] = in water, room temperature, saturated solution stood overnight, supernatant measured by HPLC, read-out: Solubility

Row | SMILES | solubility ([1]; water) [mg/mL] | solubility [1, 3] [mg/mL] | Solubility in organic solvents (in words) ([2]; ethanol, methanol, ether, benzene, chloroform, petroleum ether and other organic solvents) | Solubility in water or 10% sodium hydroxide solution (in words) ([2]; water or 10% sodium hydroxide solution) | Solubility in water (in words) ([1]; in water at room temperature)
1 | C=C(C)[C@@H]1CCC(C)=C[C@H]1c1c(O)cc(CCCCC)c(S(=O)(=O)O)c1O [Cannabidiol-3-sulfonic acid, (1′R,2′R)-2,6-dihydroxy-5′-methyl-4-pentyl-2″-(propyl-1-en-2-yl)-1″,2′,3′,4′-tetrahydro-[1,1′-biphenyl]-3-sulfonic acid] | 56.2 (≈ 142 mM) |  |  |  | 
2 | C=C(C)[C@@H]1CCC(C)=C[C@H]1c1c(O)cc(CCCCC)c(S(=O)(=O)[O-])c1O.[Na+] [Sodium cannabidiol-3-sulfonate, sodium cannabidiol-3-sulfonate] |  | 486 |  |  | 
3 | C=C(C)[C@@H]1CCC(C)=C[C@H]1c1c(O)cc(CCCCC)cc1O [Cannabidiol, 2-[(1R,6R)-3-methyl-6-(1-methylvinyl)-2-cyclohexen-1-yl]-5-pentyl-1,3-benzenediol] |  | 0.41 (≈ 1.3 mM) | soluble | almost insoluble | slightly soluble
